{"source": "paper PMC2808025", "about": "(Current Chemical Genomics, 2009)", "key": {"PAP": {"system": "PAP", "settings": "cited from earlier work"}, "human PAP": {"target": "T1, human PAP (Homo sapiens, UniProt P15309)", "T1 sequence (P15309 33-386)": "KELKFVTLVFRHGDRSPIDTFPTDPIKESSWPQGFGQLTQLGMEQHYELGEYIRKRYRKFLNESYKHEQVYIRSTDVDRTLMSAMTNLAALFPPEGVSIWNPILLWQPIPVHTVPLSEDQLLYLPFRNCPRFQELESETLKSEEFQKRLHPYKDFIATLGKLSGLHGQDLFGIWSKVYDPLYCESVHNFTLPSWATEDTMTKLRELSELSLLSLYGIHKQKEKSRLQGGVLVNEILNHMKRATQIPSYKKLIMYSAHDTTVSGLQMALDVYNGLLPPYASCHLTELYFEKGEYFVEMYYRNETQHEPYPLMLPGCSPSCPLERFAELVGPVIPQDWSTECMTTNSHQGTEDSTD", "type": "biochemical"}}, "note": "“And” between values parts separate entries of the source, which are not always exact repeats. Equal entries are not always repeated. Where two headings read alike, the source gives them in different places."}
{"molecule": "O=P(O)(O)C(NCc1ccccc1)c1ccccc1", "note": "(stereo not drawn) [BABPA, α-benzylaminobenzylphosphonic acid]", "values": [{"measurement": "IC50", "setting": "PAP; known PAP inhibitor", "value": "nanomolar range"}]}
{"molecule": "Cc1cc(=O)oc2c(F)c(OP(=O)(O)O)c(F)cc12", "note": "[DiFMUP, difluoro-4-methylumbelliferyl phosphate]", "values": [{"measurement": "Km", "setting": "human PAP", "value": 918, "unit": "µM"}]}
{"molecule": "O=C([O-])[C@H](O)[C@@H](O)C(=O)[O-].[Na+].[Na+]", "note": "[sodium L-(+)-tartrate]", "values": [{"measurement": "Hill slope", "setting": "human PAP", "value": "0.96 and 0.89"}, {"measurement": "IC50", "setting": "human PAP", "value": "53 µM and 40 µM"}, {"measurement": "IC50", "setting": "PAP; read-out: published IC50", "value": 29, "unit": "µM"}]}
